Data: US12507703B2, “Methods, devices and compositions for preserving human milk” (The Trustees of Princeton University, priority 2023, dated 2025)
Values joined by “and” are separate entries in the source; they are usually repeats but may differ in a detail not shown here. Identical values can stand only once. Where a SMILES comes first, the peptide text is derived from it.

test system: lipase; test: Lipase/lipolysis assay (EnzChek Lipase Substrate, quenched BODIPY-fatty acid conjugate) on stored human milk; settings: not given; as to Lipase (RFU): test concentration or dose not given here

SMILES | Lipase (RFU) | Hit in lipase inhibition screen (in words)
O=C(O)[C@H]1O[C@@H](Oc2c(-c3ccc(O)cc3)oc3cc(O)cc(O)c3c2=O)[C@H](O)[C@@H](O)[C@@H]1O [Kaempferol 3-O-β-D-glucuronide] | 1023.998 RFU | –
C[C@@H]1O[C@@H](O[C@H]2[C@H](Oc3c(-c4ccc(O)cc4)oc4cc(O)cc(O)c4c3=O)O[C@H](CO)[C@@H](O)[C@@H]2O)[C@H](O)[C@H](O)[C@H]1O [Kaempferol 3-neohesperidoside] | 1019.446 RFU | –
C[C@@H]1O[C@@H](Oc2cc(O)c3c(=O)c(O)c(-c4ccc(O)cc4)oc3c2)[C@H](O)[C@H](O)[C@H]1O [Kaempferol-7-O-rhamnoside] | 963.8327 RFU | –
C[C@@]12C=Cc3occc3[C@H]1CC[C@@]13C[C@@H](CC[C@H]12)[C@@](O)(CO)C3 [Kahweol] | 608.7131 RFU | –
CC1=CC(=O)CC(C)(C)C1=O [Ketoisophorone] | 818.3204 RFU and 1086.358 RFU | –
OC[C@H]1O[C@@H](Oc2cc3c(O)cc(O)cc3[o+]c2-c2ccc(O)c(O)c2)[C@H](O)[C@@H](O)[C@@H]1O.[Cl-] [Kuromanin (chloride)] | 1192.7 RFU | –
NC(N)=NCCC[C@H](NC(=O)[C@@H](N)Cc1ccc(O)cc1)C(=O)O [Kyotorphin] | 988.5967 RFU | –
C[C@H](N)C(=O)NCC(=O)O [L-Alanyl-Glycine] (H-Ala-Gly-OH) | 816.3246 RFU | –
OC[C@H](O)C(O)[C@@H](O)CO [L-Arabitol] | 912.8862 RFU | –
Cl.N=C(N)NCCC[C@H](N)C(=O)O [L-Arginine (hydrochloride)] | 1273.102 RFU | –
N=C(N)NCCC[C@H](N)C(=O)O [L-Arginine] | 753.4686 RFU and 980.9809 RFU and 913.1858 RFU | –
N[C@@H](CC(=O)O)C(=O)[O-].[Na+] [L-Aspartic aicd (sodium)] | 708.7772 RFU and 1026.622 RFU | –
O=C(O)[C@@H]1CCN1 [L-Azetidine-2-carboxylic acid] | 953.3787 RFU | –
N=C(N)NOCC[C@H](N)C(=O)O.O=S(=O)(O)O [L-Canavanine sulfate] | 903.0256 RFU | –
O=C(/C=C/c1ccc(O)c(O)c1)O[C@H](C(=O)O)[C@H](OC(=O)/C=C/c1ccc(O)c(O)c1)C(=O)O [L-Chicoric Acid] | 1257.708 RFU | –
NC(=O)NCCC[C@H](N)C(=O)O [L-Citrulline] | 1167.04 RFU and 809.9531 RFU | –
N[C@@H](CS(=O)O)C(=O)O [L-Cysteine Sulfinic Acid] | 845.2477 RFU | –
N[C@@H](CS(=O)O)C(=O)O [L-Cysteinesulfinic acid] | 867.5137 RFU | –
N[C@@H](CS)C(=O)NCC(=O)O [L-Cysteinyl-Glycine] | 708.9877 RFU | –
NCC[C@H](N)C(=O)O [L-DABA] | 650.1144 RFU | –
O=C1C[C@@H](C(=O)O)NC(=O)N1 [L-Dihydroorotic acid] | 1002.656 RFU | –
N[C@@H](CSCSC[C@H](N)C(=O)O)C(=O)O [L-Djenkolic Acid] | 317.7642 RFU | significantly inhibited lipase activity
N[C@@H](CCC(=O)O)C(=O)O [L-Glutamic Acid] | 1101.527 RFU and 821.1812 RFU | –
O=C([O-])[C@@H](O)CO.[Na+] [L-Glyceric acid (sodium)] | 822.8712 RFU | –
O=C1O[C@H]([C@@H](O)CO)[C@H](O)[C@@H]1O [L-Gulono-1,4-lactone] | 1139.877 RFU | –
CCCCCC(=O)O[C@H](CC(=O)[O-])C[N+](C)(C)C [L-Hexanoylcarnitine] | 948.6206 RFU | –
NC(=O)NCCCC[C@H](N)C(=O)O [L-Homocitrulline] | 822.9997 RFU | –
N[C@H]1CCOC1=O [L-Homoserine Lactone] | 1108.032 RFU | –
Nc1ccccc1C(=O)C[C@H](N)C(=O)O [L-Kynurenine] | 761.0277 RFU | –

same assay, conditions: (hydrochloride)

SMILES | Lipase (RFU)
Cl.N[C@@H](CS)C(=O)O [L-Cysteine (hydrochloride)] | 936.4597 RFU and 1023.471 RFU
